{
  "source": "patent US20200360331A1",
  "about": "“COMPOSITIONS COMPRISING 15-HEPE AND/OR 15-HETrE AND METHODS OF TREATING OR PREVENTING CARDIOMETABOLIC DISEASE, METABOLIC SYNDROME, AND/OR RELATED DISEASES” (Afimmune Limited, priority 2019, published 2020)",
  "key": {"NAFLD patients [1]": {"tested_on": "NAFLD patients", "experiment": "Phase IIa NAFLD study: safety (adverse events)", "type": "in vivo, human", "text": "(§1) The study was planned to include 96 evaluable patients with 32 patients randomized per treatment group.\nThe intensity of an AE is an estimate of the relative severity of the event made by the Investigator based on his or her clinical experience. The following definitions were used to rate the severity of an AE: • Mild: The adverse event was transient and easily tolerated. • Moderate: The adverse event caused the patient discomfort and interrupted the patient's usual activities. • Severe: The adverse event caused considerable interference with the patient's usual activities and may have been incapacitating or life-threatening.\nCausality of the AE to experimental treatment was also established by taking into account the patient's history, most recent physical examination findings, and concomitant medications. The following definitions were used to determine causality of an AE: • Not related: temporal relationship of the onset of the AE, relative to the experimental treatment was not reasonable or another cause could explain the occurrence of the AE. • Related: temporal relationship of the onset of the AE, relative to the experimental treatment was reasonable, followed a known response pattern to the treatment, and an alternative cause was unlikely."}, "BDL-operated mice": {"tested_on": "BDL-operated mice", "experiment": "BDL study: serum biochemistry (ALT, total bilirubin)", "type": "in vivo, C57BL/6J mice", "settings": "for Serum ALT / Serum Total Bilirubin: BDL mice", "procedure": "BDL Surgery: On Day 0 of the study, BDL surgery was performed under pentobarbital (Kyoritsu Seiyaku, Japan) anesthesia. The mouse's hair was first shaved, the abdominal cavity cut open, and the common bile duct was ligated twice with 7-0 surgical silk. The mouse's peritoneum and the skin were closed with sutures, and the mice were transferred to a clean cage (e.g., resting cage) until recovered from anesthesia. Sham operated mice had their common bile duct exposed but not ligated.\nSample Collection: For serum samples, non-fasting blood was collected in serum separate tubes without anticoagulant through direct cardiac puncture and centrifuged at 3,500×g for 4 minutes at 4° C. The supernatant was collected and stored at −80° C. for biochemistry (30 μL) and shipping (all the remaining). For liver samples, left lateral lobe was collected and cut into 6 pieces. Two pieces of left lateral lobe were fixed in Bouin's solution and then embedded in paraffin. Samples were stored at room temperature for histological analysis. The other 2 pieces of left lateral lobe were embedded in O.C.T. compound and quick frozen in liquid nitrogen. Samples were stored at −80° C. The remaining pieces of left lateral lobe was snap frozen in liquid nitrogen and stored at −80° C. for gene expression analyses. Right medial lobe, left medial lobe, right lobe and caudate lobe were snap frozen in liquid nitrogen and stored at −80° C. for shipping."}, "Collagen Type 1": {"tested_on": "Collagen Type 1", "experiment": "UUO study: quantitative RT-PCR of kidney, Collagen Type 1", "type": "in vivo, C57BL/6 mice", "settings": "UUO mice kidney", "procedure": "Quantitative RT-PCR: Total ribonucleic acid (RNA) was extracted from kidney samples using RNAiso (Takara Bio, Japan) according to the manufacturer's instructions. One μg of RNA was reverse-transcribed using a reaction mixture containing […] (mM) of magnesium chloride (MgCl2) (F. Hoffmann-La Roche, Switzerland), 40 U RNase inhibitor (Toyobo, Japan), 0.5 mM dNTP (Promega, USA), 6.28 μM random hexamer (Promega), 5× first strand buffer (Promega), 10 mM dithiothreitol (Invitrogen, USA) and 200 U MMLV-RT (Invitrogen) in a final volume of 20 μL. The reaction was carried out for 1 hour at 37° C., followed by 5 minutes at 99° C. Real-time PCR was performed using real-time PCR DICE and TB Green™ Premix Ex Taq™ II (Takara Bio). To calculate the relative […] (mRNA) expression level, the expression of each gene (e.g., α-SMA, TIMP-1, TGF-β and Collagen Type 1) was normalized to that of reference gene 36B4 (gene symbol: Rplp0). Information regarding the PCR-primer sets and the plate layout are described in Tables 1 and 2."}, "NAFLD patients [2]": {"tested_on": "NAFLD patients", "experiment": "Phase IIa NAFLD study: lipid profile", "type": "in vivo, human", "settings": "for Triglycerides (median placebo-corrected % change from baseline): 2 g", "text": "Exploratory analysis: The exploratory analysis included analysis of lipid and metabolic parameters including total cholesterol, triglycerides, very low-density lipoprotein cholesterol (VLDL-C), low density lipoprotein cholesterol (LDL-C), high density lipoprotein cholesterol (HDL-C), non-high-density lipoprotein cholesterol (non-HDL-C), remnant-like particle cholesterol (RLP-C), fasting glucose, insulin, free fatty acids and hemoglobin A1C (HbA1C). Additional exploratory analysis included high throughput lipidomics and proteomics.\nas §1\nClinical Laboratory Safety Tests: Safety tests were performed for hematology, serum biochemistry, coagulation, lipid profile, and urinalysis: Blood and urine samples were taken as per the Study Flow Chart in Table 19 for routine hematology, serum biochemistry, coagulation and urinalysis tests, along with a Lipid Profile. All samples were analyzed in the central laboratory. All subjects were fasted for a minimum of 8 hours prior to blood sampling. If subjects had not fasted for a minimum of 8 hours, the duration of fasting time was recorded, and subjects encouraged to fast appropriately for the next clinical visit. • Hematology: Full blood count to include red cell count, hemoglobin, hematocrit, white cell count, differential white cell count, platelet count and reticulocyte count. • Serum biochemistry: Urea (blood urea nitrogen; BUN), creatinine, uric acid, total bilirubin, Indirect and Direct Bilirubin, sodium, bicarbonate potassium, phosphorus, calcium chloride, alkaline phosphatase (ALP), aspartate aminotransferase (AST), alanine aminotransferase (ALT), ALT/AST ratio, lactate dehydrogenase (LDH), creatine phosphokinase (CPK), albumin, total protein, cholesterol, triglycerides, glucose, C-reactive protein (CRP). • Coagulation: prothrombin time (PT), international normalized ratio (INR) and activated partial […]. • Lipid Profile: LDL, HDL, and VLDL-C. • Urinalysis: pH, protein, glucose, blood, ketones, leukocytes, leukocyte esterase, bilirubin, specific gravity, urobilinogen and nitrate. Reflex micro if blood, protein, leukocyte esterase or nitrate/nitrite are present."}, "NAFLD patients [3]": {"tested_on": "NAFLD patients", "experiment": "Phase IIa NAFLD study: alkaline phosphate (ALP)", "type": "in vivo, human", "settings": "2 g", "procedure": "as §1\nClinical Laboratory Safety Tests: Safety tests were performed for hematology, serum biochemistry, coagulation, lipid profile, and urinalysis: Blood and urine samples were taken as per the Study Flow Chart in Table 19 for routine hematology, serum biochemistry, coagulation and urinalysis tests, along with a Lipid Profile. All samples were analyzed in the central laboratory. All subjects were fasted for a minimum of 8 hours prior to blood sampling. […]"}, "[4]": {"settings": "50 mg/kg PO QD Day 0-13, Day 14"}, "[5]": {"settings": "250 mg/kg PO QD Day 0-13, Day 14"}, "[6]": {"settings": "500 mg/kg PO QD Day 0-13, Day 14"}, "[7]": {"settings": "BDL mice, 50, 250 and 500 mg/kg"}},
  "data": [
    {"smiles": "CC/C=C\\CC(O)/C=C/C=C\\C/C=C\\C/C=C\\CCCC(=O)O", "note": "(stereo not shown) [DS102, 15-hydroxy-eicosa-5Z,8Z,11Z,13E,17Z-pentaenoic acid]", "values": [
      {"measurement": "Death, patients n", "setting": "NAFLD patients [1]; 1 g DS102 (n = 32)", "result": 0},
      {"measurement": "Patients with ≥1 AE related to study drug, %", "setting": "NAFLD patients [1]; 1 g DS102 (n = 32)", "result": "(6.3) %"},
      {"measurement": "Patients with ≥1 AE, %", "setting": "NAFLD patients [1]; 1 g DS102 (n = 32)", "result": "(59.4) %"},
      {"measurement": "Death, patients n", "setting": "NAFLD patients [1]; 2 g DS102 (n = 30)", "result": 0},
      {"measurement": "Patients with ≥1 AE related to study drug, %", "setting": "NAFLD patients [1]; 2 g DS102 (n = 30)", "result": "(10.0) %"},
      {"measurement": "Patients with ≥1 AE, %", "setting": "NAFLD patients [1]; 2 g DS102 (n = 30)", "result": "(50.0) %"},
      {"measurement": "Patients with ≥1 SAE, %", "setting": "NAFLD patients [1]; 2 g DS102 (n = 30)", "result": "(3.3) %"},
      {"measurement": "drug related serious adverse events (SAEs)", "setting": "NAFLD patients [1]; NAFLD patients, 16 weeks", "result": "no drug related serious adverse events"},
      {"measurement": "safety and tolerability compared to placebo", "setting": "NAFLD patients [1]; NAFLD patients, 16 weeks", "result": "safe and well tolerated"},
      {"measurement": "Serum ALT", "setting": "BDL-operated mice; [4]", "result": "402 ± 112", "unit": "U/L"},
      {"measurement": "Serum Total Bilirubin", "setting": "BDL-operated mice; [4]", "result": "26.8 ± 6.9", "unit": "mg/dL"},
      {"measurement": "Serum ALT", "setting": "BDL-operated mice; [5]", "result": "351 ± 155", "unit": "U/L"},
      {"measurement": "Serum Total Bilirubin", "setting": "BDL-operated mice; [5]", "result": "23.5 ± 9.8", "unit": "mg/dL"},
      {"measurement": "Serum ALT", "setting": "BDL-operated mice; [6]", "result": "383 ± 147", "unit": "U/L"},
      {"measurement": "Serum Total Bilirubin", "setting": "BDL-operated mice; [6]", "result": "26.2 ± 6.1", "unit": "mg/dL"},
      {"measurement": "serum ALT level vs Vehicle group", "setting": "BDL-operated mice; [7]", "result": "no significant differences"},
      {"measurement": "serum total bilirubin level vs Vehicle group", "setting": "BDL-operated mice; [7]", "result": "no significant differences"},
      {"measurement": "Collagen Type 1 gene expression", "setting": "Collagen Type 1; relative mRNA normalized to 36B4, 50 mg/kg PO QD Day 0-13", "result": "11.80 ± 1.78"},
      {"measurement": "Collagen Type 1 gene expression", "setting": "Collagen Type 1; relative mRNA normalized to 36B4, 500 mg/kg PO QD Day 0-13", "result": "14.09 ± 2.88"},
      {"measurement": "Triglycerides (median placebo-corrected % change from baseline)", "setting": "NAFLD patients [2]; Week 16, Full Analysis Set", "result": "−40.2", "unit": "%"},
      {"measurement": "Triglycerides (median placebo-corrected % change from baseline)", "setting": "NAFLD patients [2]; Week 16, Subgroup: High Triglycerides (>200 mg/dL)", "result": "−20.4", "unit": "%"},
      {"measurement": "Triglycerides (median placebo-corrected % change from baseline)", "setting": "NAFLD patients [2]; Week 16, Subgroup: Triglycerides > Upper Limit Normal (>150 mg/dL)", "result": "−39.0", "unit": "%"},
      {"measurement": "triglyceride levels", "setting": "NAFLD patients [2]; NAFLD patients, Week 16", "result": "lowered"},
      {"measurement": "lipid profile (total cholesterol, VLDL-C, non-HDL-C, RLP cholesterol, triglyceride levels)", "setting": "NAFLD patients [2]; Week 16, safety analysis set (SAS)", "result": "significantly improved"},
      {"measurement": "alkaline phosphate (ALP)", "setting": "NAFLD patients [3]", "result": "reduced"}
    ]}
  ]
}
